Measurements: the supplement of paper PMC11061612

Experiments:
Assay in all cases: Bliss excess, mean over the matrix (fraction); higher = more synergy
[1] = system: WSU-NHL (B-Cell Non-Hodgkin's Lymphoma)
Outline: (§1)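 Cell lines in DMEM/F12 or RPMI with 10% FBS were plated in 1536-well plates, held 24 hours at 37°C, 5% CO2, then given two-drug dose matrices for 72 hours (DMSO typically 0.2%). Viability was read by CellTiter-Glo 2.0 luminescence and scaled as inhibition from 0 (vehicle wells) to 1 (blank wells). Combination Emax is the second-highest inhibition in the matrix; Bliss excess is observed combination effect minus expected EA + EB − EA·EB, EA and EB being single-agent effects.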

[2] = system: SNU-449 (Hepatocellular Carcinoma)
Outline: as §1

[3] = system: SW1710 (Bladder Carcinoma)
Outline: as §1

GAMG (Glioblastoma) = system: GAMG (Glioblastoma)
Outline: as §1

NCI-H2722 (Mesothelioma) = system: NCI-H2722 (Mesothelioma)
Outline: as §1

[4] = system: NUGC-4 (Gastric Carcinoma)
Outline: as §1

EW-11 (Ewing's Sarcoma) = system: EW-11 (Ewing's Sarcoma)
Outline: as §1

[5] = system: Detroit562 (Head and Neck Carcinoma)
Outline: as §1

[6] = system: HH (T-Cell Non-Hodgkin's Lymphoma)
Outline: as §1

A673 (Ewing's Sarcoma) = system: A673 (Ewing's Sarcoma)
Outline: as §1

[7] = system: SW1573 (Lung Adenocarcinoma)
Outline: as §1

BPH-1 (Non-Cancerous) = system: BPH-1 (Non-Cancerous)
Outline: as §1

[8] = system: Hs-746T (Gastric Carcinoma)
Outline: as §1

[9] = system: YAPC (Pancreatic Carcinoma)
Outline: as §1

[10] = system: SNU-16 (Gastric Carcinoma)
Outline: as §1

NCI-H2052 (Mesothelioma) = system: NCI-H2052 (Mesothelioma)
Outline: as §1

[11] = system: FTC-133 (Thyroid Gland Carcinoma)
Outline: as §1

MPP-89 (Mesothelioma) = system: MPP-89 (Mesothelioma)
Outline: as §1

[12] = system: ALL-PO (B-Lymphoblastic Leukemia)
Outline: as §1

[13] = system: TGBC1TKB (Biliary Tract Carcinoma)
Outline: as §1

Row | SMILES | Bliss excess [1] | Bliss excess [2] | Bliss excess [3] | Bliss excess (GAMG (Glioblastoma)) | Bliss excess (NCI-H2722 (Mesothelioma)) | Bliss excess [4] | Bliss excess (EW-11 (Ewing's Sarcoma)) | Bliss excess [5] | Bliss excess [6] | Bliss excess (A673 (Ewing's Sarcoma)) | Bliss excess [7] | Bliss excess (BPH-1 (Non-Cancerous)) | Bliss excess [8] | Bliss excess [9] | Bliss excess [10] | Bliss excess (NCI-H2052 (Mesothelioma)) | Bliss excess [11] | Bliss excess (MPP-89 (Mesothelioma)) | Bliss excess [12] | Bliss excess [13]
1 | COc1cccc(OCCCN)c1-c1cc(Nc2cnc(C#N)cn2)n[nH]1 [Prexasertib] + Cc1cc2ncnn2cc1Nc1ncc2c(n1)n(C1CCOCC1)c(=O)n2C [AZD7648] (first compound max 1 µM, 7x7, partner max 10 µM) | -0.0355 | -0.0861 | -0.045 | -0.0214 | -0.012 | 0.0137 | -0.0303 | -0.0342 | -0.021 | -0.0112 | -0.0225 | 0.0161 | -0.0512 | -0.0172 | -0.0059 | -0.0349 | -0.0311 | -0.0104 | 0.0031 | -0.0747
2 | CCc1c2c(nc3ccc(O)cc13)-c1cc3c(c(=O)n1C2)COC(=O)[C@]3(O)CC [SN-38] + CN(C)CCCOc1ccc(-c2ccc3ncc4c(c3c2)n(C2CCOCC2)c(=O)n4C)cn1 [AZD0156] (first compound max 0.3 µM, 7x7, partner max 1 µM) | 0.0636 | -0.0353 | 0.0111 | 0.0527 | -0.0318 | 0.0208 | -0.012 | 0.118 | -0.0452 | 0.0777 | 0.0139 | 0.0463 | -0.029 | -0.0553 | 0.107 | -0.0409 | -0.0031 | 0.0342 | 0.0685 | -0.006
3 | CN(CCO)CC[C@H](CSc1ccccc1)Nc1ccc(S(=O)(=O)NC(=O)c2ccc(N3CCC([C@@H](O)c4ccccc4-c4ccc(Cl)cc4)CC3)cc2)cc1S(=O)(=O)C(F)(F)F [AZD4320] + CN(C)CCCOc1ccc(-c2ccc3ncc4c(c3c2)n(C2CCOCC2)c(=O)n4C)cn1 [AZD0156] (first compound max 1 µM, 7x7, partner max 1 µM) | -0.0238 | -0.0828 | -0.0302 | -0.0237 | -0.0276 | -0.0513 | -0.0102 | -0.0332 | -0.0203 | 0.0419 | -0.0585 | -0.0216 | 0.0037 | -0.028 | -0.0207 | -0.0383 | 0.0392 | -0.0339 | 0.0031 | -0.022
4 | CN(CCO)CC[C@H](CSc1ccccc1)Nc1ccc(S(=O)(=O)NC(=O)c2ccc(N3CCC([C@@H](O)c4ccccc4-c4ccc(Cl)cc4)CC3)cc2)cc1S(=O)(=O)C(F)(F)F [AZD4320] + C=CCn1c(=O)c2cnc(Nc3ccc(N4CCN(C)CC4)cc3)nc2n1-c1cccc(C(C)(C)O)n1 [AZD1775] (first compound max 1 µM, partner max 1 µM) | -0.0242 | -0.0744 | -0.0047 | 0.0041 | 0.042 | -0.0217 | 0.091 | -0.0067 | 0.0911 | 0.082 | 0.0152 | 0.0378 | -0.0054 | -0.0482 | 0.0049 | 0.0004 | 0.0341 | 0.0351 | 0.0631 | 0.0352
5 | Cc1c2c(nn1C)CSCc1cc(n(C)n1)CSc1cc(c3ccccc3c1)OCCCc1c(C(=O)O)n(C)c3c-2c(Cl)ccc13 [AZD5991] + C1CN(CCC1(C(=O)N[C@@H](CCO)C2=CC=C(C=C2)Cl)N)C3=NC=NC4=C3C=CN4 [Capivasertib] (first compound max 1 µM, 7x7, partner max 3 µM) | -0.0777 | -0.0238 | -0.0407 | -0.0239 | -0.0147 | -0.0228 | -0.02 | -0.0269 | 0.0176 | 0.0001 | -0.0587 | 0.0123 | 0.0327 | -0.0095 | -0.0001 | -0.0083 | 0.0062 | 0.0003 | 0.0327 | -0.0159
6 | NC1(C(=O)N[C@@H](CCO)c2ccc(Cl)cc2)CCN(c2ncnc3[nH]ccc23)CC1 [Capivasertib] + Cn1cnc2c(F)c(Nc3ccc(Br)cc3Cl)c(C(=O)NOCCO)cc21 [Selumetinib] (first compound max 10 µM, 7x7, partner max 10 µM) | 0.0544 | -0.0113 | 0.0396 | 0.0408 | 0.0009 | 0.0363 | 0.021 | 0.0993 | -0.0626 | 0.0877 | -0.0111 | -0.0162 | 0.0736 | 0.03 | 0.0151 | -0.0031 | 0.0156 | -0.0188 | 0.117 | 0.0729
7 | NC1(C(=O)N[C@@H](CCO)c2ccc(Cl)cc2)CCN(c2ncnc3[nH]ccc23)CC1 [Capivasertib] + COc1nnc2ccc(N3CCC(c4ccc(OCCN5CCN(C)C(=O)[C@H]5C)cc4)CC3)nn12 [AZD5153] (first compound max 10 µM, 7x7, partner max 1 µM) | -0.0923 | 0.0058 | 0.0751 | 0.039 | 0.0016 | -0.0333 | 0.115 | -0.0212 | 0.0022 | -0.0386 | -0.0278 | -0.0542 | 0.0169 | 0.007 | 0.0344 | 0.0133 | 0.0923 | -0.0632 | -0.0116 | 0.02
8 | COc1nnc2ccc(N3CCC(c4ccc(OCCN5CCN(C)C(=O)[C@H]5C)cc4)CC3)nn12 [AZD5153] + CC1(C)CCC(CN2CCN(c3ccc(C(=O)NS(=O)(=O)c4ccc(NCC5CCOCC5)c([N+](=O)[O-])c4)c(Oc4cnc5[nH]ccc5c4)c3)CC2)=C(c2ccc(Cl)cc2)C1 [Venetoclax] (first compound max 1 µM, 7x7, partner max 1 µM) | 0.0355 | -0.0308 | -0.0739 | -0.01 | -0.0485 | -0.0455 | -0.117 | -0.0552 | -0.065 | -0.0706 | -0.118 | -0.0574 | -0.119 | -0.0115 | -0.0522 | -0.0748 | -0.0745 | -0.0166 | 0.058 | 0.0071
9 | Cc1c2c(nn1C)CSCc1cc(n(C)n1)CSc1cc(c3ccccc3c1)OCCCc1c(C(=O)O)n(C)c3c-2c(Cl)ccc13 [AZD5991] + C=CCn1c(=O)c2cnc(Nc3ccc(N4CCN(C)CC4)cc3)nc2n1-c1cccc(C(C)(C)O)n1 [AZD1775] (first compound max 1 µM, partner max 1 µM) | -0.0459 | 0.0317 | -0.0257 | -0.0528 | -0.016 | -0.0128 | -0.0011 | 0.0261 | -0.0046 | 0.0002 | -0.0337 | -0.0071 | -0.0096 | 0.0258 | 0.0049 | -0.0875 | 0.0172 | -0.0732 | 0.0023 | 0.0066
10 | COc1nnc2ccc(N3CCC(c4ccc(OCCN5CCN(C)C(=O)[C@H]5C)cc4)CC3)nn12 [AZD5153] + C[C@@H]1COCCN1C2=NC(=NC(=C2)C3(CC3)[S@](=N)(=O)C)C4=C5C=CNC5=NC=C4 [AZD6738] (first compound max 1 µM, 7x7, partner max 10 µM) | -0.0621 | -0.0048 | 0.0013 | 0.04 | 0.0378 | 0.0188 | 0.0006 | -0.0241 | -0.0324 | 0.0361 | 0.109 | 0.0343 | 0.0429 | 0.0088 | -0.0408 | -0.0497 | 0.0856 | 0.0648 | 0.0106 | 0.0016
11 | NC1(C(=O)N[C@@H](CCO)c2ccc(Cl)cc2)CCN(c2ncnc3[nH]ccc23)CC1 [Capivasertib] + C[C@@H]1COCCN1C2=NC(=NC(=C2)C3(CC3)[S@](=N)(=O)C)C4=C5C=CNC5=NC=C4 [AZD6738] (first compound max 10 µM, 7x7, partner max 10 µM) | -0.05 | -0.0057 | -0.0403 | -0.0558 | -0.0119 | -0.0488 | -0.011 | -0.0137 | -0.0396 | 0.0077 | -0.0915 | -0.0497 | -0.0747 | 0.0093 | -0.0208 | -0.0657 | -0.042 | -0.0166 | 0.0103 | -0.005
12 | Cc1c2c(nn1C)CSCc1cc(n(C)n1)CSc1cc(c3ccccc3c1)OCCCc1c(C(=O)O)n(C)c3c-2c(Cl)ccc13 [AZD5991] + C[C@@H]1COCCN1C2=NC(=NC(=C2)C3(CC3)[S@](=N)(=O)C)C4=C5C=CNC5=NC=C4 [AZD6738] (first compound max 1 µM, 7x7, partner max 10 µM) | -0.0352 | 0.0175 | 0.0299 | 0.0116 | 0.0224 | 0.02 | 0.0217 | 0.0364 | 0.0317 | 0.0077 | 0.0337 | 0.0039 | 0.0423 | 0.0715 | 0.0167 | 0.039 | 0.0969 | -0.0426 | 0.0236 | 0.0537
13 | NC1(C(=O)N[C@@H](CCO)c2ccc(Cl)cc2)CCN(c2ncnc3[nH]ccc23)CC1 [Capivasertib] + CC(C)n1c(=O)n(C)c2cnc3cc(F)c(-c4ccc(OCCCN5CCCCC5)nc4)cc3c21 [AZD1390] (first compound max 10 µM, 7x7, partner max 0.3 µM) | -0.0418 | -0.038 | -0.0482 | -0.0455 | -0.0512 | -0.0524 | -0.0438 | -0.0122 | -0.0327 | -0.0885 | -0.0724 | -0.0842 | -0.0445 | -0.0105 | -0.0034 | -0.095 | -0.0486 | -0.0069 | -0.0382 | 0.004
